{"source": "patent US20110118309A1", "about": "“USE OF HDAC INHIBITORS FOR THE TREATMENT OF HODGKIN'S DISEASE” (priority 2008, published 2011)", "key": {"CTCL mouse model": {"system": "CTCL mouse model", "assay": "CTCL mouse model", "format": "in vivo", "description": "(§1) Bcl2 may be a patient stratification marker"}, "CTCL cell lines": {"system": "CTCL cell lines", "assay": "Sensitivity of CTCL cell lines", "format": "cell-based", "description": "as §1"}, "L-428": {"system": "L-428", "assay": "Single agent anti-tumor activity of LBH589 in Hodgkins Lymphoma cell lines in vitro (growth inhibition and cell kill)", "format": "cell-based", "details": "L-428, Hodgkins Lymphoma", "description": "as §1\n(§2) Single agent anti-tumor activity of LBH589 in Hodgkins Lymphoma cell lines in vitro is outlined in table I."}, "HD-MY-Z": {"system": "HD-MY-Z", "assay": "Single agent anti-tumor activity of LBH589 in Hodgkins Lymphoma cell lines in vitro (growth inhibition and cell kill)", "format": "cell-based", "description": "as §1, §2"}, "RPMI 6666": {"system": "RPMI 6666", "assay": "Single agent anti-tumor activity of LBH589 in Hodgkins Lymphoma cell lines in vitro (growth inhibition and cell kill)", "format": "cell-based", "details": "RPMI 6666, Hodgkins Lymphoma", "description": "as §1, §2"}, "[1]": {"system": "Cell lines of mantle cell and follicular lymphoma", "assay": "Sensitivity of mantle cell and follicular lymphoma cell lines", "format": "cell-based", "description": "as §1"}, "[2]": {"system": "Hodgkin lymphoma cell lines, RPMI6666, HD-MY-Z, and L428", "assay": "Proliferation and viability of 3 Hodgkin lymphoma cell lines", "format": "cell-based", "details": "range over 3 HL cell lines; units printed in the value (picomolar, nanomolar)", "description": "as §1"}, "[3]": {"system": "E[…]-myc mouse lymphoma model", "assay": "E[…]-myc mouse lymphoma model", "format": "in vivo", "description": "as §1"}, "[4]": {"details": "Homo sapiens, read-out: IC50: Concentration of LBH589 required to inhibit growth of cell line by 50%"}}, "note": "pIC50: −log10 of the molar value."}
{"smiles": "Cc1[nH]c2ccccc2c1CCNCc1ccc(/C=C/C(=O)NO)cc1", "note": "[LBH589, N-hydroxy-3-[4-[[[2-(2-methyl-1H-indol-3-yl)-ethyl]-amino]methyl]phenyl]-2E-2-propenamide]", "values": [{"measurement": "tumor regression", "setting": "CTCL mouse model", "value": "profound tumor regression"}, {"measurement": "sensitivity to LBH589", "setting": "CTCL cell lines", "value": "extremely sensitive"}, {"measurement": "pIC50", "setting": "L-428; [4]", "value": 7.98}, {"measurement": "LD90: Concentration of LBH589 required to kill a cell line population by 90%", "setting": "L-428", "value": 57.5, "unit": "nM"}, {"measurement": "LD90: Concentration of LBH589 required to kill a cell line population by 90%", "setting": "HD-MY-Z; in nM", "value": ">10,000"}, {"measurement": "pIC50", "setting": "HD-MY-Z; read-out: IC50: Concentration of LBH589 required to inhibit growth of cell line by 50%", "value": 7.29}, {"measurement": "pIC50", "setting": "RPMI 6666; [4]", "value": 9.70}, {"measurement": "LD90: Concentration of LBH589 required to kill a cell line population by 90%", "setting": "RPMI 6666; in nM", "value": 274.7}, {"measurement": "sensitivity to LBH589", "setting": "[1]", "value": "extreme sensitivity"}, {"measurement": "pIC50", "setting": "[2]", "value": "7.30 to 9.70"}, {"measurement": "regression of lymphoma", "setting": "[3]", "value": "produces regression"}, {"measurement": "survival", "setting": "[3]", "value": "extends survival"}]}
